Reference: patent US11021444B2, “Antiviral compounds” (priority 2013, dated 2021)
pEC50, pIC50: −log10 of the molar value. Where two headings read alike, the source gives them in different places.

What was measured:
recombinant RSV complex = recombinant RSV complex (Human respiratory syncytial virus A, UniProt P28887); assay: RSV Polymerase Inhibition Assay; type: biochemical
Procedure: Standard RSV polymerase assays were conducted in the presence of 10 nM recombinant RSV complex in a reaction buffer containing Tris-HCl pH7.5, 6 mM MgCl2, and other additives and substrates including RNA oligonucleotides and radionucleotides. Standard reactions were incubated in 96-well plate format for 2 h at 30° C., in the presence of increasing concentration of inhibitor. The reaction was stopped with 90 μL of 0.1M EDTA, and the reaction product was transferred to a “reading” 96-well plate. After washing of the plate, radiolabeled RNA products were detected according to standard procedures with a Trilux Topcount scintillation counter.

[1] = Cytotoxicity Determination (CCK-8, without addition of virus); type: cell-based; settings: human, 50% cytotoxicity concentration (CC50)
Procedure: (§1) CPE reduction assays are performed as described by Sidwell and Huffman et al., Appl. Microbiol. (1971) 22(5):797-801 with slight modifications. HEp-2 cells (ATCC #, CCL-23) are seeded at a density of 1,500 cells/30 μl/well into the 384-well cell plate(s) (Corning #3701) one day prior to the assay. Compounds are added into 384-well cell plates by Labcyte POD 810 Plate Assembler system. Each of the test compounds is provided to duplicate wells of a 384-well cell plate at final concentrations starting from 100 μM or 1 μM using 1/3 stepwise dilutions for 9 points. Quick-thaw Respiratory Syncytial Virus (RSV) long strain (ATCC #VR-26) stock in a 37° C. water bath. Place on ice until ready to use. Viruses are diluted to the concentration of 100 TCID50/30 μL with medium and 30 μl diluted RSV are added into related wells of 384-well cell plates. For each plate, sixteen wells are set aside as uninfected, untreated cell controls (CC), and nine wells per test plate receive virus only as a control for virus replication (VC). The final DMSO concentration of all wells is 1%. Place the plates at 37° C., 5% CO2 for 5 days.
In order to determine the compound cytotoxicity, in parallel, each of the compounds is applied to duplicate wells in a 384-well cell plate at serial final concentrations starting from 100 μM using 1/2 stepwise dilutions for 7 points without addition of virus. Incubate the cells at 37° C., 5% CO2 for 5 days. Add 6 μL CCK-8 into each well and incubate in a CO2 incubator at 37° C. for 3-4 hours.

[2] = system: Respiratory Syncytial Virus (RSV) long strain; assay: microbe, parasite or virus in culture; type: cell-based; settings: human respiratory syncytial virus, Tables A and B list compounds by EC50 band
Procedure: as §1
After 5 days incubation, observe the CPE of cells in all wells. […] Six μl of cell counting kit-8 reagent (CCK-8, Dojindo Molecular Technologies Inc., CK04-20) are added to each well, which allows colorimetric assays to determine the number of viable cells through the dehydrogenase activity detection. After 3-4 hour incubation, the absorbance of each well is measured with a spectrophotometric plate reader at 450 nm wavelength, using a 630 nm filter as background according to manufacturer's instruction.

[3] = HEp-2, 120 h, read-out: 50% effective concentration (EC50), HEp-2 cells infected with RSV long strain, 5 days, CCK-8 readout
[4] = 120 h, read-out: 50% effective concentration (EC50), HEp-2 cells infected with RSV long strain, 5 days, CCK-8 readout

recombinant RSV complex, sequence (P28887 whole entry): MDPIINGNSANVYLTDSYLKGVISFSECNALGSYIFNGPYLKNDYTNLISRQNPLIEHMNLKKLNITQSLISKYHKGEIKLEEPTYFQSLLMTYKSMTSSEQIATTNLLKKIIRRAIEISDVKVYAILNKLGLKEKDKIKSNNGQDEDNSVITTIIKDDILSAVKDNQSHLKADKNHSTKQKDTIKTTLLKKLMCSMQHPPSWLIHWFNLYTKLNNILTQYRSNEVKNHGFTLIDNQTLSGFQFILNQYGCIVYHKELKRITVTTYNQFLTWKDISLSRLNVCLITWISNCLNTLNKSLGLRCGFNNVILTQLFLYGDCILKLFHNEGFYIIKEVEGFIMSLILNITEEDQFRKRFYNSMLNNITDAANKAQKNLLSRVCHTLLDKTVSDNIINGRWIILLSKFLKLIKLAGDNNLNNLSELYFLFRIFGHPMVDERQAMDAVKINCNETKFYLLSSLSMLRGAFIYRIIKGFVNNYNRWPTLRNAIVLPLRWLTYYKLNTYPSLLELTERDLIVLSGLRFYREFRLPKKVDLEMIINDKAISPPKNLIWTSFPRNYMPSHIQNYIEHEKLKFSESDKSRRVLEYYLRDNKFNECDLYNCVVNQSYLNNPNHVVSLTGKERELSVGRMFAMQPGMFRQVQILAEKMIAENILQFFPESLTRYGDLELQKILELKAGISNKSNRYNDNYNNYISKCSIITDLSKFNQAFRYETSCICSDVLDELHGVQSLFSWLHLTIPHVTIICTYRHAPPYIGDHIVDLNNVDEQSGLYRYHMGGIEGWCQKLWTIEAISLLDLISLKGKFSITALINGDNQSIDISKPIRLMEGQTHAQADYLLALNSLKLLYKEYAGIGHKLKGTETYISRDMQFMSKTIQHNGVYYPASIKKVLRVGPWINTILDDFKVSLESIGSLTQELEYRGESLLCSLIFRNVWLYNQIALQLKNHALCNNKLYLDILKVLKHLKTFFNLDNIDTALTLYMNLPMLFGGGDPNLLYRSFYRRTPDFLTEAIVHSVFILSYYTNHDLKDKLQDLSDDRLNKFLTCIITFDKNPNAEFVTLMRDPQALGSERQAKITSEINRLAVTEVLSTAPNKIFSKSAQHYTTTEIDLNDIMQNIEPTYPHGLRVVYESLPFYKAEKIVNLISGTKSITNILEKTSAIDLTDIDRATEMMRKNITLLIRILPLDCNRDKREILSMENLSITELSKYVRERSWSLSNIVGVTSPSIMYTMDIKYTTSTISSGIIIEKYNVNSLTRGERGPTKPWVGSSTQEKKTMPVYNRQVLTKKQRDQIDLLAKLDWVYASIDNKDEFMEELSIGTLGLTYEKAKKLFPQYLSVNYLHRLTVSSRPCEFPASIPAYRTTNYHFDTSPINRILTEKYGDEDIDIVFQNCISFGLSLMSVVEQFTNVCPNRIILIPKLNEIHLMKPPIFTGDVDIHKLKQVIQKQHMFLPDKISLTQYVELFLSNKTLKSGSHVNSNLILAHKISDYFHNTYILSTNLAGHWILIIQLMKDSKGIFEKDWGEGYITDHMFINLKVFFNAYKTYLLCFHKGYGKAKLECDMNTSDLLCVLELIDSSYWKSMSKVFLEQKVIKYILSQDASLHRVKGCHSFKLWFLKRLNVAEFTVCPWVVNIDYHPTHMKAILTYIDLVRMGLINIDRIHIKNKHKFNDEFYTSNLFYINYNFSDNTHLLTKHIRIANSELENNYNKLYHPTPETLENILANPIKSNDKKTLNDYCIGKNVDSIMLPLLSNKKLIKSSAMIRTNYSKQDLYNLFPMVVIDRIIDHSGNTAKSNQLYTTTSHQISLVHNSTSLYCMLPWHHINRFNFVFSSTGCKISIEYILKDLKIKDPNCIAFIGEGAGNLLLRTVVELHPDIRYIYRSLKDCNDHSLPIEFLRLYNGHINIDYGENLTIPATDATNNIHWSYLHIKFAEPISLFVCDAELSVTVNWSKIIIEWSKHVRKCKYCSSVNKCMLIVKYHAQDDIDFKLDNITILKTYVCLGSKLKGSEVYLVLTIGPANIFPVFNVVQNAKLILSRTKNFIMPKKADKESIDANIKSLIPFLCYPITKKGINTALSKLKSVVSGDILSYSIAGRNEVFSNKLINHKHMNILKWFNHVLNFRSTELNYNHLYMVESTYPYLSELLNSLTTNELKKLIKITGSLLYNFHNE
recombinant RSV complex, sequence (P03421 whole entry, further chain): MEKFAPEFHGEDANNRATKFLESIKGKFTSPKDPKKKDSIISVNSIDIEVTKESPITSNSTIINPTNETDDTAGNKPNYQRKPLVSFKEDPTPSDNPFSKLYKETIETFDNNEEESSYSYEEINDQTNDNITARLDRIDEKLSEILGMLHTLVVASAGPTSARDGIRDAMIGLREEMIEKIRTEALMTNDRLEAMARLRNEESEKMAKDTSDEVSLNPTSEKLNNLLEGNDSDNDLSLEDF

| SMILES | pIC50 (recombinant RSV complex) | CC50 at 5 days [1] | pEC50 [2, 3] | pEC50 [2, 4] |
| --- | --- | --- | --- | --- |
| COc1cc(C(=O)NCC(N)(CF)c2ccc(OC)c(-c3ccc(F)c(Cl)c3)n2)ccc1OC1CC1 (stereo not shown) [Compound 518] | > 6.00 | 10 to 100 µM | > 6.00 |  |
| COc1cc(C(=O)NCC(C)(O)c2cc3cc[nH]c3c(-c3ccc(F)c(Cl)c3)n2)ccc1OCCF (stereo not shown) [Compound 290] | > 5.00 | 10 to 100 µM |  | 4.30 to 6.00 |
| COc1cc(C(=O)NCC(O)(c2ccc(OC)c(-c3ccc(F)c(Cl)c3)n2)C2CC2)ccc1OC(F)F (stereo not shown) [Compound 432] | > 6.00 | 10 to 100 µM | 4.30 to 6.00 |  |
| COCc1ccc(C(=O)NCC(C)(O)c2ccc(OC)c(-c3ccc(F)c(Cl)c3)n2)cc1OC (stereo not shown) [Compound 114] | > 5.00 | 10 to 100 µM | 4.30 to 6.00 |  |
| COc1cc(C(=O)NC[C@](O)(c2cc3c(c(-c4ccc(F)cc4)n2)OC[C@@]3(C)N)C(F)(F)F)ccc1OC[C@@H](C)O [Compound 632] | > 6.00 | 10 to 100 µM | > 6.00 |  |
| COc1cc(C(=O)NCC(O)(c2cc3c(c(-c4ccc(Cl)c(Cl)c4)n2)OCC3(C)N)C(F)(F)F)ccc1OCCO (stereo not shown) [Compound 662] | > 6.00 | 10 to 100 µM | > 6.00 |  |
| COc1cc(C(=O)NCC(O)(c2ccc(OC)c(-c3ccc(F)c(Cl)c3)n2)C(F)(F)F)ccc1OCC(F)(F)F (stereo not shown) [Compound 233] | > 6.00 | > 100 µM | 4.30 to 6.00 |  |
| COc1cc(-c2csc3c(F)cccc23)nc(C(O)CNC(=O)c2ccc(OC)c(OC)c2)n1 (stereo not shown) [Compound 131] |  | 10 to 100 µM |  | 4.30 to 6.00 |
| COc1cc(C(=O)NCC(O)(CN(C)C)c2ccc(OC)c(-c3ccc(F)c(Cl)c3)n2)ccc1OCCO (stereo not shown) [Compound 178] | > 4.00 | > 100 µM | 4.30 to 6.00 |  |
| COc1cc(C(=O)NCC(O)(c2ccc(OC)c(-c3ccc(F)c(Cl)c3)n2)C(F)(F)F)ccc1OCC(N)=O (single isomer, unassigned) [Compound 238] | > 6.00 | 10 to 100 µM | > 6.00 |  |
| CNC(=O)COc1ccc(C(=O)NCC(C)(O)c2cccc(-c3ccc(F)c(Cl)c3)n2)cc1OC (stereo not shown) [Compound 121] |  | > 100 µM |  | 4.30 to 6.00 |
| COc1cc(C(=O)NCC(O)(c2cc3c(c(-c4ccc(F)c(Cl)c4)n2)OCC3(C)C)C(F)(F)F)cc2ccc(C)nc12 (stereo not shown) [Compound 213] | > 6.00 | > 100 µM | > 6.00 |  |
| COc1cc(C(=O)NCC(O)(CN2CCNC(=O)C2)c2ccc(OC)c(-c3ccc(F)c(Cl)c3)n2)ccc1OCCO (stereo not shown) [Compound 182] | > 6.00 | > 100 µM | > 6.00 |  |
| COc1ccc(C(O)(CNC(=O)c2ccc(OCCO)c(Cl)c2)C(F)(F)F)nc1-c1ccc(F)c(Cl)c1 (stereo not shown) [Compound 262] | > 6.00 | 10 to 100 µM | > 6.00 |  |
| CC1(C)COc2c1cc(C(O)(CNC(=O)c1cc(O)c3ncccc3c1)C(F)(F)F)nc2-c1ccc(F)c(Cl)c1 (stereo not shown) [Compound 207] | > 6.00 | 10 to 100 µM | 4.30 to 6.00 |  |
| COc1cc(C(=O)NCC(C)(CO)c2ccc(OC)c(-c3ccc(F)c(Cl)c3)n2)ccc1OCCO (stereo not shown) [Compound 471] | > 5.00 | 10 to 100 µM | 4.30 to 6.00 |  |
| COc1cc(C(=O)NCC(O)(c2ccc(OC)c(-c3ccc(F)c(Cl)c3)n2)C(F)(F)F)ccc1OCC(C)(F)F (stereo not shown) [Compound 234] | > 6.00 | > 100 µM | > 6.00 |  |
| COc1ccc(C(O)(CNC(=O)c2ccc3c(c2)[nH]c(=O)n3C)C(F)(F)F)nc1-c1ccc(F)c(Cl)c1 (stereo not shown) [Compound 268] | > 5.00 | 10 to 100 µM | 4.30 to 6.00 |  |
| COc1cc(C(=O)NCC(O)(c2cc3c(c(-c4ccc(F)c(C(C)F)c4)n2)OCCC3(C)C)C2CC2)ccc1OCCO (stereo not shown) [Compound 299] | > 6.00 | 10 to 100 µM | > 6.00 |  |
| COc1cc(C(=O)NCC(O)(c2cc3c(c(-c4c[nH]c5c(F)cccc45)n2)OCC3)C2CC2)ccc1OCCO (stereo not shown) [Compound 297] | > 6.00 | 10 to 100 µM | > 6.00 |  |
| COc1cc(C(=O)NCC(=O)c2cc3c(c(-c4ccc(F)c(Cl)c4)n2)OCC3)ccc1OCCF [Compound 135] | > 4.00 | > 100 µM | > 6.00 |  |

| SMILES | pIC50 (recombinant RSV complex) | CC50 at 5 days [1] | pEC50 [2, 3] | pEC50 [2, 4] |
| --- | --- | --- | --- | --- |
| Cc1ncc(C(=O)NCC(O)(c2cc(C(C)(C)N)cc(-c3ccc(F)cc3)n2)C(F)(F)F)[nH]1 (stereo not shown) [Compound 609] | > 5.00 | 10 to 100 µM | 4.30 to 6.00 |  |
| COc1cc(C(=O)NCC(O)(c2cc(C(C)(C)N)cc(-c3ccc(F)cc3)n2)C(F)(F)F)ccc1-c1ccncc1 (stereo not shown) [Compound 599] | > 6.00 | 10 to 100 µM | > 6.00 |  |
| CCc1cc(-c2ccc(F)c(Cl)c2)nc(C(C)(O)CNC(=O)c2ccc(OCC(F)F)c(OC)c2)c1 (stereo not shown) [Compound 440] | > 6.00 | 10 to 100 µM |  | 4.30 to 6.00 |
| COc1cc(C(=O)NCC(O)c2cccc(-c3csc4c(F)cccc34)n2)ccc1OCCO (stereo not shown) [Compound 165] | > 5.00 | 10 to 100 µM | 4.30 to 6.00 |  |
| CNc1ccc(C(O)(CNC(=O)c2ccc(OC3CC3)c(OC)c2)C(F)(F)F)nc1-c1ccc(F)c(Cl)c1 (stereo not shown) [Compound 451] | > 6.00 | > 100 µM | > 6.00 |  |
| COCC(C)(N)c1cc(-c2ccc(F)c(Cl)c2)nc(C(O)(CNC(=O)c2ccc(OCCO)c(OC)c2)C(F)(F)F)c1 (stereo not shown) [Compound 541] | > 6.00 | 10 to 100 µM | > 6.00 |  |
| COc1cc(C(O)CNC(=O)c2ccc(OC)c(OC)c2)nc(-c2csc3c(F)cccc23)n1 (stereo not shown) [Compound 112] |  | 10 to 100 µM |  | 4.30 to 6.00 |
| COc1ccc(C(=O)NCC(O)c2nc(-c3csc4c(F)cccc34)c[nH]2)cc1OC (stereo not shown) [Compound 132] |  | 10 to 100 µM |  | 4.30 to 6.00 |
| COc1cc(-c2csc3c(F)cccc23)nc(C(O)CNC(=O)c2ccc(OC)c(OC)c2)c1 (stereo not shown) [Compound 100] |  | 10 to 100 µM |  | 4.30 to 6.00 |
| COc1ccc(C(=O)NCC(O)c2nc(-c3csc4c(F)cccc34)cn2C)cc1OC (stereo not shown) [Compound 133] |  | 10 to 100 µM |  | 4.30 to 6.00 |
| COc1ccc(C(=O)NCC(O)c2nc(-c3csc4c(F)cccc34)cs2)cc1OC (stereo not shown) [Compound 134] |  | 10 to 100 µM |  | 4.30 to 6.00 |
| CCCn1nc(C(O)CNC(=O)c2ccc(OC)c(OC)c2)nc1-c1csc2c(F)cccc12 (stereo not shown) [Compound 107] |  | 10 to 100 µM |  | 4.30 to 6.00 |
| COc1cc(C(=O)NCC(O)(c2ccc(OC)c(-c3ccc(F)c(Cl)c3)n2)C2CC2)ccc1CCO (stereo not shown) [Compound 433] |  | 10 to 100 µM |  | > 6.00 |
| COc1ccc(C(=O)NCC(O)c2cc(C)cc(-c3csc4c(F)cccc34)n2)cc1OC (stereo not shown) [Compound 111] |  | 10 to 100 µM |  | 4.30 to 6.00 |
| COc1ccc(C(=O)NCC(O)c2csc(-c3csc4c(F)cccc34)n2)cc1OC (stereo not shown) [Compound 108] |  | > 100 µM |  | 4.30 to 6.00 |
| COc1ccc(C(=O)NCC(O)c2nc(-c3csc4c(F)cccc34)n3ccccc23)cc1OC (stereo not shown) [Compound 113] |  | 10 to 100 µM |  | 4.30 to 6.00 |
| COc1ccc(C(=O)NCC(O)(c2ccc(OC)c(-c3ccc(F)c(Cl)c3)n2)C(F)(F)F)cc1OC (stereo not shown) [Compound 337] |  | 10 to 100 µM | 4.30 to 6.00 |  |
| COc1cc(C(=O)NCC(O)(c2ccc(OC)c(-c3ccc(F)c(Cl)c3)n2)C(F)(F)F)ccc1OC1CCCNC1=O (stereo not shown) [Compound 340] |  | 10 to 100 µM |  | > 6.00 |
| COc1cc(C(=O)NCC(=O)c2cc3c(c(-c4ccc(F)c(Cl)c4)n2)OCC3(C)C)cc2c(C)ccnc12 [Compound 229] |  | > 100 µM |  | 4.30 to 6.00 |
| COc1cc(C(=O)NCC(O)(c2ccc(OC)c(-c3ccc(F)c(Cl)c3)n2)C2CC2)ccc1OCC(N)=O (stereo not shown) [Compound 429] |  | 10 to 100 µM |  | > 6.00 |
| COc1cc(C(=O)NC[C@](O)(c2cc3c(c(-c4ccc(C#N)cc4)n2)OC[C@@]3(C)N)C(F)(F)F)ccc1OCCO [Compound 604c] | > 5.00 | 10 to 100 µM |  |  |
